Source: ChEMBL document CHEMBL1201862, “PubChem BioAssay data set” (2004)
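Assay format: 96-well plates, 48-hour exposure. GI50 is the concentration that inhibits growth by half.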 Calls of active or inactive are those of the source. Rule as the data show it: active = GI50 up to about 1.1 µM and inactive = higher.

Key:
Assay in all cases: DTP human tumour cell line panel, 48 h
IGROV-1 = test system: IGROV-1
Malme-3M = test system: Malme-3M
NCI-H460 = test system: NCI-H460
MDA-MB-231 = test system: MDA-MB-231
OVCAR-8 = test system: OVCAR-8
UACC-62 = test system: UACC-62
K562 = test system: K562
MCF7 = test system: MCF7
MDA-N = test system: MDA-N
OVCAR-3 = test system: OVCAR-3
SR = test system: SR
NCI-H226 = test system: NCI-H226
HL-60 = test system: HL-60
MOLT-4 = test system: MOLT-4
HOP-92 = test system: HOP-92
COLO 205 = test system: COLO 205
SW-620 = test system: SW-620

Compound	GI50 (IGROV-1)	GI50 (Malme-3M)	GI50 (NCI-H460)	GI50 (MDA-MB-231)	GI50 (OVCAR-8)	GI50 (UACC-62)	GI50 (K562)	GI50 (MCF7)	GI50 (MDA-N)	GI50 (OVCAR-3)	GI50 (SR)	GI50 (NCI-H226)	GI50 (HL-60)	GI50 (MOLT-4)	GI50 (HOP-92)	GI50 (COLO 205)	GI50 (SW-620)
O=C1Cc2c(-c3ccccc3)cc(-c3cccc(Cl)c3)nc2-c2ccccc2N1	1.2 µM (inactive)	3.82 µM (inactive)	1.2 µM (inactive)	1.15 µM (inactive)	1.61 µM (inactive)	3.03 µM (inactive)	3.33 µM (inactive)	2.22 µM (inactive)	6.82 µM (inactive)	2.1 µM (inactive)	37.9 µM (inactive)	4.63 µM (inactive)	38.7 µM (inactive)	20.1 µM (inactive)	1.34 µM (inactive)	6.62 µM (inactive)	3.91 µM (inactive)
O=c1ccn(CC2(CO)CC(Cc3ccccc3)C2)c(=O)[nH]1 (configuration not stated)	> 100 µM (inactive)	> 100 µM (inactive)	> 100 µM (inactive)	> 100 µM (inactive)	> 100 µM (inactive)	> 100 µM (inactive)	> 100 µM (inactive)	> 100 µM (inactive)	> 100 µM (inactive)	> 100 µM (inactive)	> 100 µM (inactive)	> 100 µM (inactive)	> 100 µM (inactive)	> 100 µM (inactive)	–	> 100 µM (inactive)	> 100 µM (inactive)
[N-]=[N+]=Nc1c(C=O)c(=O)n2c3c(cccc13)CCC2	11.9 µM (inactive)	1.84 µM (inactive)	21.2 µM (inactive)	11.3 µM (inactive)	3.03 µM (inactive)	12.8 µM (inactive)	2.82 µM (inactive)	2.75 µM (inactive)	5.81 µM (inactive)	2.28 µM (inactive)	1.1 µM (active)	11.9 µM (inactive)	0.608 µM (active)	1.24 µM (inactive)	2.15 µM (inactive)	2.3 µM (inactive)	1.39 µM (inactive)
O=P1(N2CCOCC2)OCCO1	> 100 µM (inactive)	> 100 µM (inactive)	> 100 µM (inactive)	–	–	> 100 µM (inactive)	> 100 µM (inactive)	> 100 µM (inactive)	> 100 µM (inactive)	–	> 100 µM (inactive)	–	> 100 µM (inactive)	> 100 µM (inactive)	> 100 µM (inactive)	> 100 µM (inactive)	> 100 µM (inactive)
CCSc1nc(N)c2c(-c3ccc(OC)c(OC)c3)c3c(nc2n1)CCCC3	> 100 µM (inactive)	> 100 µM (inactive)	> 100 µM (inactive)	> 100 µM (inactive)	> 100 µM (inactive)	> 100 µM (inactive)	> 100 µM (inactive)	> 100 µM (inactive)	> 100 µM (inactive)	> 100 µM (inactive)	> 100 µM (inactive)	–	> 100 µM (inactive)	> 100 µM (inactive)	–	> 100 µM (inactive)	> 100 µM (inactive)
CN1CC=C(c2cccn2C)CC1	> 100 µM (inactive)	> 100 µM (inactive)	–	> 100 µM (inactive)	> 100 µM (inactive)	> 100 µM (inactive)	> 100 µM (inactive)	> 100 µM (inactive)	> 100 µM (inactive)	> 100 µM (inactive)	> 100 µM (inactive)	> 100 µM (inactive)	> 100 µM (inactive)	> 100 µM (inactive)	–	> 100 µM (inactive)	> 100 µM (inactive)
CCOC(=O)c1c(-c2ccccc2)c(C)cn1C	> 10 µM (inactive)	–	> 10 µM (inactive)	0.0125 µM (active)	> 10 µM (inactive)	> 10 µM (inactive)	> 10 µM (inactive)	–	> 10 µM (inactive)	> 10 µM (inactive)	> 10 µM (inactive)	> 10 µM (inactive)	–	> 10 µM (inactive)	> 10 µM (inactive)	–	–
C=C1OC(=O)[C@]2([C@@H](/C=C/C)C=CC(=O)[C@H]2O)[C@@H]1O	> 100 µM (inactive)	> 100 µM (inactive)	> 100 µM (inactive)	> 100 µM (inactive)	> 100 µM (inactive)	> 100 µM (inactive)	> 100 µM (inactive)	> 100 µM (inactive)	> 100 µM (inactive)	> 100 µM (inactive)	73.6 µM (inactive)	> 100 µM (inactive)	> 100 µM (inactive)	> 100 µM (inactive)	–	> 100 µM (inactive)	> 100 µM (inactive)
COP(=O)(OC)[C@H](O)[C@H]1C[C@@H]1c1ccccc1	> 100 µM (inactive)	> 100 µM (inactive)	> 100 µM (inactive)	> 100 µM (inactive)	> 100 µM (inactive)	> 100 µM (inactive)	> 100 µM (inactive)	> 100 µM (inactive)	–	> 100 µM (inactive)	–	> 100 µM (inactive)	> 100 µM (inactive)	> 100 µM (inactive)	17.4 µM (inactive)	> 100 µM (inactive)	> 100 µM (inactive)
Cc1c(OCc2ccccc2)c(=O)ccn1CCc1c[nH]c2ccccc12	26.6 µM (inactive)	22.1 µM (inactive)	33.7 µM (inactive)	34.1 µM (inactive)	53 µM (inactive)	27.4 µM (inactive)	–	18.5 µM (inactive)	28.7 µM (inactive)	18.5 µM (inactive)	27.6 µM (inactive)	–	–	1.9 µM (inactive)	14.4 µM (inactive)	16.4 µM (inactive)	36.1 µM (inactive)
O=C1C(Cl)=C(N2CCC[C@H]2CO)C(=O)c2c(O)ccc(O)c21	4.95 µM (inactive)	1.7 µM (inactive)	8.63 µM (inactive)	2.64 µM (inactive)	2.88 µM (inactive)	2.04 µM (inactive)	0.425 µM (active)	1.81 µM (inactive)	1.86 µM (inactive)	2.56 µM (inactive)	0.592 µM (active)	> 10 µM (inactive)	0.0724 µM (active)	0.337 µM (active)	1.72 µM (inactive)	1.77 µM (inactive)	1.7 µM (inactive)
CCOC(=O)/C(C(=O)Nc1ccc(Cl)cc1)=C(/N)N1CCCC1	54.2 µM (inactive)	> 100 µM (inactive)	> 100 µM (inactive)	> 100 µM (inactive)	> 100 µM (inactive)	42 µM (inactive)	66.7 µM (inactive)	> 100 µM (inactive)	> 100 µM (inactive)	> 100 µM (inactive)	–	> 100 µM (inactive)	> 100 µM (inactive)	71.6 µM (inactive)	–	> 100 µM (inactive)	> 100 µM (inactive)
COC(=O)C1=C(O)C(C(=O)OC)[C@]2(O)[C@@H](C(=O)OC)[C@H]1C[C@@H](c1ccccc1)[C@@H]2C(=O)OC (some centres not stated)	–	18.2 µM (inactive)	14 µM (inactive)	16.1 µM (inactive)	–	11.9 µM (inactive)	5.61 µM (inactive)	5.93 µM (inactive)	5.01 µM (inactive)	13.8 µM (inactive)	4.17 µM (inactive)	18.6 µM (inactive)	19.6 µM (inactive)	11.6 µM (inactive)	–	–	–
COc1cc(CCCl)c(CC2=NCCc3cc(OC)c(OC)cc32)cc1OC	29.4 µM (inactive)	–	> 100 µM (inactive)	55.7 µM (inactive)	> 100 µM (inactive)	43.3 µM (inactive)	31 µM (inactive)	88.9 µM (inactive)	70.1 µM (inactive)	> 100 µM (inactive)	23 µM (inactive)	> 100 µM (inactive)	4.41 µM (inactive)	> 100 µM (inactive)	> 100 µM (inactive)	47.4 µM (inactive)	85.5 µM (inactive)
CN(CCCCCl)P(=O)(OCC1=CC(=O)c2ccccc2C1=O)OC[C@H]1O[C@@H](n2cc(F)c(=O)[nH]c2=O)C[C@@H]1O (some centres not stated)	0.124 µM (active)	1.1 µM (active)	< 0.01 µM (active)	3.2 µM (inactive)	0.0378 µM (active)	0.0399 µM (active)	1.5 µM (inactive)	< 0.01 µM (active)	0.753 µM (active)	0.109 µM (active)	–	0.521 µM (active)	0.69 µM (active)	–	< 0.0285 µM (active)	–	3.51 µM (inactive)
COc1cc2cc(C(=O)N3CC(CCl)c4c3cc(N(C)C)c3ccccc43)[nH]c2c(OC)c1OC (configuration not stated)	0.0111 µM (active)	0.0321 µM (active)	< 0.01 µM (active)	0.0378 µM (active)	< 0.01 µM (active)	< 0.01 µM (active)	< 0.01 µM (active)	< 0.01 µM (active)	0.0169 µM (active)	0.0127 µM (active)	< 0.01 µM (active)	0.0132 µM (active)	–	< 0.01 µM (active)	0.0417 µM (active)	0.012 µM (active)	0.0107 µM (active)
COC(CN(C(C)=O)C1CCC2(SCCS2)c2[nH]c3ccccc3c21)OC (configuration not stated)	> 100 µM (inactive)	> 100 µM (inactive)	> 100 µM (inactive)	> 100 µM (inactive)	> 100 µM (inactive)	–	> 100 µM (inactive)	> 100 µM (inactive)	> 100 µM (inactive)	> 100 µM (inactive)	57.9 µM (inactive)	> 100 µM (inactive)	89.9 µM (inactive)	60.8 µM (inactive)	> 100 µM (inactive)	> 100 µM (inactive)	> 100 µM (inactive)
CCCCCc1cccc(=O)o1	> 100 µM (inactive)	> 100 µM (inactive)	> 100 µM (inactive)	> 100 µM (inactive)	> 100 µM (inactive)	> 100 µM (inactive)	> 100 µM (inactive)	> 100 µM (inactive)	> 100 µM (inactive)	> 100 µM (inactive)	–	> 100 µM (inactive)	> 100 µM (inactive)	> 100 µM (inactive)	44.2 µM (inactive)	> 100 µM (inactive)	> 100 µM (inactive)
